From US6046238A, “Method for treating or preventing the spread of acne vulgaris” (TriStrata, Inc., priority 1999, dated 2000)
In brackets after ≈: the same amount, converted by molar mass. Entries after “also recorded” stand apart in the source; their conditions may differ. Like-named read-outs stand apart in the source and are kept apart here.

Assays:
Pseudomonas aeruginosa = test: MIC Agar Dilution Test, Pseudomonas aeruginosa; type: cell-based; conditions: P. aeruginosa
Source text: (§1) The following strains of microorganisms were used in Minimum Inhibitory Concentration (MIC) tests for phenyl 2-acetoxyethanoic acid in this example and for benzoyl peroxide, chlorhexidine gluconate and triclosan in the following examples. In total, five strains were used for S. aureus, five strains were used for S. epidermidis, two strains were used for M. sedentarius, three strains were used for M. luteus, two strains were used for B. epidermis, three strains were used for C. minutissium, one strain was used for S. marcescens, three strains were used for P. aeruginosa, four strains were used for E. coli, and thirty-two strains were used for P. acnes.
(§2) Antimicrobial effects were determined based on MIC Agar Dilution Test utilizing Trypticase Soy Agar II (BBL) incorporation plates with and without 10% intralipid (Kabi Pharmacia Inc.). Initially, phenyl 2-acetoxyethanoic acid was prepared as a 2 mg/ml (0.2%) solution in water. This solution with serial dilution was incorporated into the test agar plates. The MIC test gave similar results when the same species but a different strain was used.
(§3) Under the same test conditions described in Example 1, benzoyl peroxide was prepared as a 2.5 mg/ml (0.25%) solution in water. This solution with serial dilution was incorporated into the test agar plates. Typical test results are shown as follows.
(§4) Under the same test conditions described in Example 1, chlorhexidine gluconate was prepared as a 2 mg/ml (0.2%) solution in water. This solution with serial dilution was incorporated into the test agar plates. Typical test results are shown as follows.
(§5) Under the same test conditions described in Example 1, triclosan was prepared as a 10 mg/ml (1%) solution in water. This solution with serial dilution was incorporated into the test agar plates. Typical test results are shown as follows.
(§6) Ten different species of bacteria were used in Minimum Inhibitory Concentration (MIC) tests. The bacteria include S. aureus, S. epidermidis,M. sedentarius, M. luteus, B. epidermis, C. minutissium, S. marcescens, P. aeruginosa, E. coli, and P. acnes. In addition various sources and strains of these bacteria were also included in the tests, and up to 32 different strains of P. acnes were used.
(§7) The test substance selected from phenyl 2-acetoxyethanoic acid, benzoyl peroxide, chlorhexidine gluconate and triclosan was dissolved in water, and the solution with serial dilution was incorporated into the test agar plates. The plates containing different concentrations of test substance were inoculated with a strain of bacterium. MIC is defined as the lowest concentration of the test substance in the plate in which there is no growth of the microorganism.

Propionibacterium acnes = test: MIC Agar Dilution Test, Propionibacterium acnes; type: cell-based; conditions: for MIC: Cutibacterium acnes
Source text: as §1, §2, §3, §4, §5, §6, §7

[1] = test system: ten different species of bacteria; test: MIC Agar Dilution Test, panel of ten bacteria; type: cell-based; conditions: with or without 10% lipid materials
Source text: as §1, §2, §3, §4, §5
In order to determine the antimicrobial effect of an aryl 2-acetoxyethanoicacid, a standard test method of Minimum Inhibitory Concentration (MIC) against the growth of 10 bacteria was used. To determine a prophylactic effect against the development of, as well as a topical effect in the treatment of, body foul door, eleven human subjects participated in this study. More than twenty human subjects participated in a study to determine whether the compositions containing an aryl 2-acetoxyethanoic acid were therapeutically effective for topical treatment of folliculitis and other skin lesions, nail infections and mucosal infections caused by microbial infections. Scientific and test results are overviewed as follows.
as §6, §7

[2] = prevention and treatment of foot malodor; type: in vivo, human; conditions: 1% in talc powder
Method: A typical test for prophylactic effect in preventing the development of, as well as treatment of, foot malodor was carried out as follows. A test composition in powder form was prepared by mixing 1 g of finely powdered phenyl 2-acetoxyethanoic acid with 99 g of talc powder. The talc powder alone was used as a control vehicle.
A human subject had persistent foot malodor all year round. […] On the first morning, the subject was instructed to spread the test composition lightly on the left foot and also inside the hose. The control vehicle was used on the right foot and inside the hose. […] The subject was then instructed to apply the test composition on both feet the second morning.
A total of six subjects (three females; three males) participated in several studies.
A test composition containing 1% phenyl 2-acetoxyethanoic acid in powder form was prepared by mixing thoroughly 1 g of finely powdered compound with 99 g of talc powder. The talc powder alone was used as a control vehicle. The test composition and the control vehicle were packaged in one-ounce powder containers. The participating subjects were instructed to lightly spread the test composition on the bottom of the left foot and inside the hose or sock on the first morning.
The criteria for ineffectiveness or effectiveness of the test composition were based on presence or absence of malodor as detected by olfactory sense of smell. Both feet were monitored by the subject and at least one other person in the evening.
The subjects were then instructed to apply the test composition on both feet the next morning. […] The same topical applications were continued by all the participants for several days to confirm the above results.

[3] = topical treatment of nail infections; type: in vivo, human; conditions: non-synergistic composition, twice daily
Source text: The participating subjects in the present study were instructed to apply twice daily the composition containing phenyl 2-acetoxyethanoic acid or diphenyl 2-acetoxyethanoic acid with or without clotrimazole as an additional antimicrobial agent.
In order to determine the antimicrobial effect of an aryl 2-acetoxyethanoicacid, a standard test method of Minimum Inhibitory Concentration (MIC) against the growth of 10 bacteria was used. To determine a prophylactic effect against the development of, as well as a topical effect in the treatment of, body foul door, eleven human subjects participated in this study. […] Scientific and test results are overviewed as follows.

[4] = topical treatment of folliculitis and perifolliculitis; type: in vivo, human; conditions: 0.9%, twice daily; nine patients
Method: Nine patients having various degrees of folliculitis and perifolliculitis participated in this study. A test composition containing 0.9% phenyl 2-acetoxyethanoic acid or diphenyl 2-acetoxyethanoic acid was prepared by dissolving 0.9 g compound in 79.1 ml 2-propanol, 15 ml butane-1,3-diol and 5 ml nonoxynol-6. The composition was packaged in one-ounce bottles. The patients were instructed to apply the test composition twice daily on the infected skin lesions and involved areas. Topical applications were continued up to 8 weeks.

CC(=O)OC(C(=O)O)c1ccccc1 (stereo not shown) [phenyl 2-acetoxyethanoic acid]
MIC (Pseudomonas aeruginosa; 10% intralipid, read-out: MIC Lipid): 1000 µg/mL (≈ 5.15 mM)
MIC (Pseudomonas aeruginosa; no lipid, read-out: MIC No Lipid): 1000 µg/mL (≈ 5.15 mM)
MIC (Propionibacterium acnes; P. acnes, 10% intralipid, read-out: MIC Lipid): 250 µg/mL (≈ 1.29 mM)
MIC (Propionibacterium acnes; P. acnes, no lipid, read-out: MIC No Lipid): 250 µg/mL (≈ 1.29 mM)
MIC (Propionibacterium acnes; even in the presence of 10% lipid materials, read-out: concentration specifically effective against the growth of P. acnes): 250 µg/mL
MIC (Propionibacterium acnes; in the presence of 10% lipid materials, read-out: concentration effective against P. acnes): 250 µg/mL
inhibitory effect against P. acnes, compared (Propionibacterium acnes; with or without lipid materials, same test conditions as comparators): most active and effective compound against P. acnes
inhibitory effects against the growth of all ten bacteria [1]: had inhibitory effects against all of the above bacteria
inhibitory effects against the growth of all ten bacteria ([1]; listed as Phenyl 2-acetoxyethanoic acid): showed inhibitory effects against the growth of all ten bacteria tested
overall effectiveness against foot malodor [2]: topically effective in preventing the development of and in treating foot malodor; also recorded: topically effective in preventing the development of and was also therapeutically effective for topical treatment of foot malodor
malodor of both feet at the end of the second day ([2]; both feet treated): produced no detectable malodor
malodor of left foot by the first evening ([2]; left foot treated, right foot vehicle): produced no detectable malodor in all the participating subjects
malodor on continued application ([2]; several days): complete suppression of malodor was sustained
disappearance of nail infections [3]: usually disappeared within one to several months
deeper lesions of papules [4]: eradicated or substantially improved after 4 to 8 weeks of topical applications
superficial folliculitis and perifolliculitis lesions [4]: eradicated or substantially improved after a few days of topical applications
